Values after ≈ are worked out from the molar mass of the structure shown. Read-outs that look alike come from different tables or passages of the source.
Experiments:
Assay in all cases: Antimicrobial susceptibility testing (MIC), BD Phoenix Automated Microbiology System; on interpretation of the result: key: R, resistant; I, intermediate; S, susceptible; R*: *As a rule, when ESBL is detected, an interpretation of susceptible or intermediate for penicillins, cephalosporins and aztreonam is reported as resistant
Format in all cases: cell-based
[1] = test system: Klebsiella ssp.; conditions: for MIC: Klebsiella; on interpretation of the result: key: R, resistant; I, intermediate; S, susceptible; R*: *As a rule, when ESBL is detected, an interpretation of susceptible or intermediate for penicillins, cephalosporins and aztreonam is reported as resistant
[2] = test system: Pseudomonas aeruginosa; conditions: for MIC: Pseudomonas aeruginosa; on interpretation of the result: key: R, resistant; I, intermediate; S, susceptible; R*: *As a rule, when ESBL is detected, an interpretation of susceptible or intermediate for penicillins, cephalosporins and aztreonam is reported as resistant
[3] = test system: Acinetobacter baumannii; conditions: for MIC: Acinetobacter baumannii; on interpretation of the result: key: R, resistant; I, intermediate; S, susceptible; R*: *As a rule, when ESBL is detected, an interpretation of susceptible or intermediate for penicillins, cephalosporins and aztreonam is reported as resistant
[4] = test system: Escherichia coli; conditions: for MIC: Escherichia coli
[5] = read-out: minimal inhibiting concentration, Klebsiella ssp. isolate 1
[6] = read-out: minimal inhibiting concentration, Klebsiella ssp. isolate 2
[7] = read-out: minimal inhibiting concentration, Klebsiella ssp. isolate 3
[8] = read-out: minimal inhibiting concentration, Klebsiella ssp. isolate 4
[9] = read-out: minimal inhibiting concentration, Klebsiella ssp. isolate 5
[10] = Pseudomonas aeruginosa isolate 1
[11] = Pseudomonas aeruginosa isolate 2
[12] = Pseudomonas aeruginosa isolate 3
[13] = Pseudomonas aeruginosa isolate 4
[14] = Pseudomonas aeruginosa isolate 5
[15] = read-out: minimal inhibiting concentration, Pseudomonas aeruginosa isolate 1
[16] = read-out: minimal inhibiting concentration, Pseudomonas aeruginosa isolate 2
[17] = read-out: minimal inhibiting concentration, Pseudomonas aeruginosa isolate 3
[18] = read-out: minimal inhibiting concentration, Pseudomonas aeruginosa isolate 4
[19] = read-out: minimal inhibiting concentration, Pseudomonas aeruginosa isolate 5
[20] = Acinetobacter baumannii isolate 1
[21] = Acinetobacter baumannii isolate 2
[22] = Acinetobacter baumannii isolate 3
[23] = Acinetobacter baumannii isolate 4
[24] = Acinetobacter baumannii isolate 5
[25] = read-out: minimal inhibiting concentration, Acinetobacter baumannii isolate 1
[26] = read-out: minimal inhibiting concentration, Acinetobacter baumannii isolate 2
[27] = read-out: minimal inhibiting concentration, Acinetobacter baumannii isolate 3
[28] = read-out: minimal inhibiting concentration, Acinetobacter baumannii isolate 4
[29] = read-out: minimal inhibiting concentration, Acinetobacter baumannii isolate 5
[30] = read-out: minimal inhibiting concentration, Escherichia coli isolate 1
[31] = read-out: minimal inhibiting concentration, Escherichia coli isolate 2
[32] = read-out: minimal inhibiting concentration, Escherichia coli isolate 3
[33] = read-out: minimal inhibiting concentration, Escherichia coli isolate 4
[34] = read-out: minimal inhibiting concentration, Escherichia coli isolate 5

**Q.** What does the source list for `C[C@@H](O)[C@H]1C(=O)N2C(C(=O)O)=C(SCCN=CN)C[C@H]12` [Im., Imipenem]?
**A.** interpretation of the result ([1]; Klebsiella ssp. isolate 1): S; interpretation of the result ([1]; Klebsiella ssp. isolate 2): S; interpretation of the result ([1]; Klebsiella ssp. isolate 3): S; interpretation of the result ([1]; Klebsiella ssp. isolate 4): S; interpretation of the result ([1]; Klebsiella ssp. isolate 5): S; MIC [1, 5]: ≤ 1 µg/mL; MIC [1, 6]: ≤ 1 µg/mL; MIC [1, 7]: ≤ 1 µg/mL; MIC [1, 8]: ≤ 1 µg/mL; MIC [1, 9]: ≤ 1 µg/mL; interpretation of the result [2, 10]: R; interpretation of the result [2, 11]: R; interpretation of the result [2, 12]: R; interpretation of the result [2, 13]: R; interpretation of the result [2, 14]: S; MIC [2, 15]: > 8 µg/mL; MIC [2, 16]: > 8 µg/mL; MIC [2, 17]: > 8 µg/mL; MIC [2, 18]: > 8 µg/mL; MIC [2, 19]: 2 µg/mL (≈ 6.68 µM); interpretation of the result [3, 20]: S; interpretation of the result [3, 21]: R; interpretation of the result [3, 22]: R; interpretation of the result [3, 23]: S; interpretation of the result [3, 24]: R; MIC [3, 25]: 2 µg/mL (≈ 6.68 µM); MIC [3, 26]: > 8 µg/mL; MIC [3, 27]: > 8 µg/mL; MIC [3, 28]: 2 µg/mL (≈ 6.68 µM); MIC [3, 29]: > 8 µg/mL; interpretation of the result ([4]; Escherichia coli isolate 1): S; interpretation of the result ([4]; Escherichia coli isolate 2): S; interpretation of the result ([4]; Escherichia coli isolate 3): S; interpretation of the result ([4]; Escherichia coli isolate 4): S; interpretation of the result ([4]; Escherichia coli isolate 5): S; MIC [4, 30]: ≤ 1 µg/mL; MIC [4, 31]: ≤ 1 µg/mL; MIC [4, 32]: ≤ 1 µg/mL; MIC [4, 33]: ≤ 1 µg/mL; MIC [4, 34]: ≤ 1 µg/mL

**Q.** Which “interpretation of the result” value ([1]; Klebsiella ssp. isolate 1) does the source give for `C[C@H]1COc2c(N3CCN(C)CC3)c(F)cc3c(=O)c(C(=O)O)cn1c23` [Lev., Levofloxacin] here?
**A.** The value was “R”.

**Q.** What about the “interpretation of the result” value ([1]; Klebsiella ssp. isolate 2) of the same compound?
**A.** The value was “S”.

**Q.** And the “interpretation of the result” value ([1]; Klebsiella ssp. isolate 3)?
**A.** Its value is “S”.

**Q.** What about the “interpretation of the result” value ([1]; Klebsiella ssp. isolate 4) of the same compound?
**A.** The value was “S”.

**Q.** And the “interpretation of the result” value ([1]; Klebsiella ssp. isolate 5)?
**A.** Its value is “S”.

**Q.** And the MIC [1, 5]?
**A.** Its MIC is > 4 µg/mL.

**Q.** And the MIC [1, 6]?
**A.** The MIC was ≤ 1 µg/mL.

**Q.** And the MIC [1, 7]?
**A.** Its MIC is ≤ 1 µg/mL.

**Q.** And the MIC [1, 8]?
**A.** The MIC was ≤ 1 µg/mL.

**Q.** And the MIC [1, 9]?
**A.** Its MIC is ≤ 1 µg/mL.

**Q.** And the “interpretation of the result” value [2, 10]?
**A.** Its value is “R”.

**Q.** And the “interpretation of the result” value [2, 11]?
**A.** Its value is “R”.

**Q.** What about the “interpretation of the result” value [2, 12] of the same compound?
**A.** The value was “R”.

**Q.** What about the “interpretation of the result” value [2, 13] of the same compound?
**A.** Its value is “R”.

**Q.** And the “interpretation of the result” value [2, 14]?
**A.** Its value is “R”.

**Q.** What about the MIC [2, 15] of the same compound?
**A.** The MIC was > 4 µg/mL.

**Q.** And the MIC [2, 16]?
**A.** The MIC was > 4 µg/mL.

**Q.** What about the MIC [2, 17] of the same compound?
**A.** Its MIC is > 4 µg/mL.

**Q.** And the MIC [2, 18]?
**A.** Its MIC is > 4 µg/mL.

**Q.** And the MIC [2, 19]?
**A.** The MIC was > 4 µg/mL.

**Q.** What about the “interpretation of the result” value [3, 20] of the same compound?
**A.** Its value is “R”.

**Q.** And the “interpretation of the result” value [3, 21]?
**A.** Its value is “R”.

**Q.** What about the “interpretation of the result” value [3, 22] of the same compound?
**A.** The value was “I”.

**Q.** What about the “interpretation of the result” value [3, 23] of the same compound?
**A.** The value was “R”.

**Q.** And the “interpretation of the result” value [3, 24]?
**A.** Its value is “R”.

**Q.** And the MIC [3, 25]?
**A.** Its MIC is > 4 µg/mL.

**Q.** And the MIC [3, 26]?
**A.** Its MIC is > 4 µg/mL.

**Q.** What about the MIC [3, 27] of the same compound?
**A.** Its MIC is 4 µg/mL (≈ 11.1 µM).

**Q.** And the MIC [3, 28]?
**A.** The MIC was > 4 µg/mL.

**Q.** And the MIC [3, 29]?
**A.** The MIC was > 4 µg/mL.

**Q.** What about the “interpretation of the result” value ([4]; Escherichia coli isolate 1) of the same compound?
**A.** The value was “R”.

**Q.** And the “interpretation of the result” value ([4]; Escherichia coli isolate 2)?
**A.** Its value is “R”.

**Q.** And the “interpretation of the result” value ([4]; Escherichia coli isolate 3)?
**A.** Its value is “R”.

**Q.** And the “interpretation of the result” value ([4]; Escherichia coli isolate 4)?
**A.** The value was “R”.

**Q.** What about the “interpretation of the result” value ([4]; Escherichia coli isolate 5) of the same compound?
**A.** Its value is “R”.

**Q.** What about the MIC [4, 30] of the same compound?
**A.** The MIC was > 4 µg/mL.

**Q.** What about the MIC [4, 31] of the same compound?
**A.** The MIC was > 4 µg/mL.

**Q.** What about the MIC [4, 32] of the same compound?
**A.** Its MIC is > 4 µg/mL.

**Q.** What about the MIC [4, 33] of the same compound?
**A.** The MIC was > 4 µg/mL.

**Q.** What about the MIC [4, 34] of the same compound?
**A.** The MIC was > 4 µg/mL.

**Q.** How did the “interpretation of the result” value ([1]; Klebsiella ssp. isolate 1) turn out when `C[C@@H](O)[C@H]1C(=O)N2C(C(=O)O)=C(S[C@@H]3CN[C@H](C(=O)N(C)C)C3)[C@H](C)[C@H]12` [Mero., Meropenem] was run?
**A.** Its value is “S”.

**Q.** What about the “interpretation of the result” value ([1]; Klebsiella ssp. isolate 2) of the same compound?
**A.** The value was “S”.

**Q.** What about the “interpretation of the result” value ([1]; Klebsiella ssp. isolate 3) of the same compound?
**A.** The value was “S”.

**Q.** What about the “interpretation of the result” value ([1]; Klebsiella ssp. isolate 4) of the same compound?
**A.** Its value is “S”.

**Q.** And the “interpretation of the result” value ([1]; Klebsiella ssp. isolate 5)?
**A.** The value was “S”.

**Q.** And the MIC [1, 5]?
**A.** The MIC was ≤ 1 µg/mL.

**Q.** What about the MIC [1, 6] of the same compound?
**A.** The MIC was ≤ 1 µg/mL.

**Q.** And the MIC [1, 7]?
**A.** Its MIC is ≤ 1 µg/mL.

**Q.** What about the MIC [1, 8] of the same compound?
**A.** The MIC was ≤ 1 µg/mL.

**Q.** And the MIC [1, 9]?
**A.** Its MIC is ≤ 1 µg/mL.

**Q.** What about the susceptibility of isolates ([1]; all Klebsiella ssp. isolates) of the same compound?
**A.** Its susceptibility of isolates is “susceptible”.

**Q.** What about the “interpretation of the result” value [2, 10] of the same compound?
**A.** The value was “S”.

**Q.** And the “interpretation of the result” value [2, 11]?
**A.** Its value is “R”.

**Q.** What about the “interpretation of the result” value [2, 12] of the same compound?
**A.** The value was “R”.

**Q.** What about the “interpretation of the result” value [2, 13] of the same compound?
**A.** Its value is “R”.

**Q.** And the “interpretation of the result” value [2, 14]?
**A.** The value was “S”.

**Q.** What about the MIC [2, 15] of the same compound?
**A.** The MIC was 4 µg/mL (≈ 10.4 µM).

**Q.** What about the MIC [2, 16] of the same compound?
**A.** The MIC was > 8 µg/mL.

**Q.** And the MIC [2, 17]?
**A.** Its MIC is > 8 µg/mL.

**Q.** What about the MIC [2, 18] of the same compound?
**A.** The MIC was > 8 µg/mL.

**Q.** What about the MIC [2, 19] of the same compound?
**A.** The MIC was 4 µg/mL (≈ 10.4 µM).

**Q.** And the “interpretation of the result” value [3, 20]?
**A.** The value was “S”.

**Q.** And the “interpretation of the result” value [3, 21]?
**A.** The value was “R”.

**Q.** And the “interpretation of the result” value [3, 22]?
**A.** Its value is “R”.

**Q.** And the “interpretation of the result” value [3, 23]?
**A.** The value was “S”.

**Q.** And the “interpretation of the result” value [3, 24]?
**A.** The value was “R”.

**Q.** What about the MIC [3, 25] of the same compound?
**A.** The MIC was 2 µg/mL (≈ 5.22 µM).

**Q.** And the MIC [3, 26]?
**A.** Its MIC is > 8 µg/mL.

**Q.** What about the MIC [3, 27] of the same compound?
**A.** The MIC was > 8 µg/mL.

**Q.** What about the MIC [3, 28] of the same compound?
**A.** The MIC was ≤ 1 µg/mL.

**Q.** What about the MIC [3, 29] of the same compound?
**A.** The MIC was > 8 µg/mL.

**Q.** And the “interpretation of the result” value ([4]; Escherichia coli isolate 1)?
**A.** The value was “S”.

**Q.** And the “interpretation of the result” value ([4]; Escherichia coli isolate 2)?
**A.** Its value is “S”.

**Q.** And the “interpretation of the result” value ([4]; Escherichia coli isolate 3)?
**A.** The value was “S”.

**Q.** What about the “interpretation of the result” value ([4]; Escherichia coli isolate 4) of the same compound?
**A.** The value was “S”.

**Q.** What about the “interpretation of the result” value ([4]; Escherichia coli isolate 5) of the same compound?
**A.** The value was “S”.

**Q.** And the MIC [4, 30]?
**A.** The MIC was ≤ 1 µg/mL.

**Q.** And the MIC [4, 31]?
**A.** Its MIC is ≤ 1 µg/mL.

**Q.** And the MIC [4, 32]?
**A.** Its MIC is ≤ 1 µg/mL.

**Q.** What about the MIC [4, 33] of the same compound?
**A.** The MIC was ≤ 1 µg/mL.

**Q.** And the MIC [4, 34]?
**A.** The MIC was ≤ 1 µg/mL.

**Q.** And the susceptibility of isolates ([4]; all E. coli isolates)?
**A.** Its susceptibility of isolates is “susceptible”.
